# Measurements from patent US20230321055A1, “PREVENTIVE TREATMENT OF MIGRAINE” (priority 2022, published 2023).
# Tested on: participants with chronic migraine
# Assay: Same phase 3 study: safety and tolerability (adverse events, hepatic laboratory values), safety population
# Type: in vivo, human
# Description: A phase 3, multicenter, randomized, double-blind, placebo-controlled, parallel-group study was carried out to evaluate the efficacy, safety, and tolerability of atogepant for the prevention of chronic migraine. A total of 778 participants from 133 sites in North America, Europe, and East Asia were randomized to one of three treatment arms (placebo, Atogepant 30 mg BID, and Atogepant 60 mg QD) in a 1:1:1 ratio.
# This study comprised a 4-week screening and baseline period, a 12-week double blind treatment period, and a follow-up period of 4 additional weeks. The total study duration was 20 weeks. Participant disposition information and other relevant participant screening information may also be found in FIG. 19.
# The overall safety profile of the study was consistent with safety findings observed in previous studies of atogepant in an episodic migraine population. […] For the safety population, the mean treatment duration for atogepant 30 mg BID, atogepant 60 mg QD, and placebo group were 80.1 days, 79.7 days, and 80.3 days, respectively. Serious adverse events occurred in 2.7% of patients treated with atogepant 60 mg QD and 1.6% of patients treated with atogepant 30 mg BID, compared to 1.2% of patients with placebo.
# Table 11 presents the number and percentage of participants with post-baseline hepatic-related laboratory parameter values of clinical interest. There were five participants who had post-baseline ALT or AST elevations (≥3*ULN), with 1/254 (0.4%), 2/255 (0.8%), and 2/257 (0.8%) in the placebo, atogepant 30 mg BID, and atogepant 60 mg QD groups, respectively. All cases in the atogepant dose groups were adjudicated as unlikely to be related to study drug. No participants met potential Hy's law criteria.
# [1] = 30 mg BID, safety population (N = 257)
# [2] = 60 mg QD, safety population (N = 261)
structure (smiles),measurement,setting,value
"C[C@@H]1[C@H](c2c(F)ccc(F)c2F)C[C@H](NC(=O)c2cnc3c(c2)C[C@@]2(C3)C(=O)Nc3ncccc32)C(=O)N1CC(F)(F)F [Atogepant, (S)—N—((3S,5S,6R)-6-methyl-2-oxo-1-(2,2,2-trifluoroethyl)-5-(2,3,6-trifluorophenyl)piperidin-3-yl)-2′-oxo-1′,2′,5,7-tetrahydrospiro[cyclopenta[b]pyridine-6,3′-pyrrolo[2,3-b]pyridine]-3-carboxamide]",Deaths,[1],0 n (%)
same,TEAE leading to treatment discontinuation,[1],13 (5.1) n (%)
same,"TEAEs, participants",[1],145 (56.4) n (%)
same,TESAE Anal abscess,[1],1 (0.4) n (%)
same,TESAE Benign ovarian tumour,[1],1 (0.4) n (%)
same,TESAE COVID-19,[1],0 n (%)
same,TESAE COVID-19 pneumonia,[1],1 (0.4) n (%)
same,TESAE Cholelithiasis,[1],0 n (%)
same,TESAE Epicondylitis,[1],0 n (%)
same,TESAE Fall,[1],0 n (%)
same,TESAE Hip fracture,[1],0 n (%)
same,TESAE Nasal septum deviation,[1],0 n (%)
same,TESAE Plasma cell myeloma,[1],0 n (%)
same,Deaths,[2],0 n (%)
same,TESAE COVID-19,[2],1 (0.4) n (%)
same,TESAE COVID-19 pneumonia,[2],0 n (%)
same,serious adverse events considered related to study treatment by the investigator,in vivo,None
